Earlier results on two compounds are cited in patent US20190275119A1, “PROOXIDANT CANCER CHEMO-SUPPRESSORS AND CHEMO-PROTECTORS AND METHODS OF USE RELATED THERETO” (priority 2016, published 2019).

This series has as its system tumor cells. The conditions noted are these: low concentrations (about 10 μM).

Turning to `O=CC=Cc1ccccc1OC(=O)c1ccccc1` [BCA, 2′-benzoyl-oxycinnamaldehyde], the “growth inhibition and apoptosis of tumor cells” value is “inhibit growth and induce apoptosis of tumor cells”.
Turning to `O=CC=Cc1ccccc1O` [HCA, 2′-hydroxycinnamaldehyde], the “growth inhibition and apoptosis of tumor cells” value was “inhibit growth and induce apoptosis of tumor cells”.
